The test system of assay [1] is adjuvant-induced arthritis models. Kind of assay: Adjuvant-induced arthritis models. The format is in vivo, Lewis rat. As to conditions: for clinical score: intraperitoneally, vehicle group 4.2. The protocol: Complete Freund's Adjuvant (Chondrex) containing 10 mg/mL Heat killed mycobacteria toxin was sufficiently mixed, and then 100 μL was taken and intradermally injected into the upper part of the tail of Lewis rat to induce arthritis. After 10 days, the length of the ankle circumference of rats was measured, and then the rats were grouped and used in the experiment. Each compound was intraperitoneally injected twice a day. The clinical score, the length of the ankle circumference, and the weight were measured twice a week after the administration of the compounds. The clinical scores were assigned from 0 to 4 based on the thesis of Woods, etc. (J. Immunology, 1214-1222, 2001), and the total clinical score was determined by evaluating the feet of each rat and summing up the scores (normal: 0, most severe edema: 16). The length of the ankle circumference was calculated based on the formula of 2×3.14(√(a^2+b^2/2)) after measuring top-bottom sides (a) of the foot and lateral sides (b) of the foot. The final value was determined by averaging the calculated values of each foot.

The target of a further assay is T1, HDAC 6 (Homo sapiens, UniProt Q9UBN7).
T1 sequence (Q9UBN7 1-1215): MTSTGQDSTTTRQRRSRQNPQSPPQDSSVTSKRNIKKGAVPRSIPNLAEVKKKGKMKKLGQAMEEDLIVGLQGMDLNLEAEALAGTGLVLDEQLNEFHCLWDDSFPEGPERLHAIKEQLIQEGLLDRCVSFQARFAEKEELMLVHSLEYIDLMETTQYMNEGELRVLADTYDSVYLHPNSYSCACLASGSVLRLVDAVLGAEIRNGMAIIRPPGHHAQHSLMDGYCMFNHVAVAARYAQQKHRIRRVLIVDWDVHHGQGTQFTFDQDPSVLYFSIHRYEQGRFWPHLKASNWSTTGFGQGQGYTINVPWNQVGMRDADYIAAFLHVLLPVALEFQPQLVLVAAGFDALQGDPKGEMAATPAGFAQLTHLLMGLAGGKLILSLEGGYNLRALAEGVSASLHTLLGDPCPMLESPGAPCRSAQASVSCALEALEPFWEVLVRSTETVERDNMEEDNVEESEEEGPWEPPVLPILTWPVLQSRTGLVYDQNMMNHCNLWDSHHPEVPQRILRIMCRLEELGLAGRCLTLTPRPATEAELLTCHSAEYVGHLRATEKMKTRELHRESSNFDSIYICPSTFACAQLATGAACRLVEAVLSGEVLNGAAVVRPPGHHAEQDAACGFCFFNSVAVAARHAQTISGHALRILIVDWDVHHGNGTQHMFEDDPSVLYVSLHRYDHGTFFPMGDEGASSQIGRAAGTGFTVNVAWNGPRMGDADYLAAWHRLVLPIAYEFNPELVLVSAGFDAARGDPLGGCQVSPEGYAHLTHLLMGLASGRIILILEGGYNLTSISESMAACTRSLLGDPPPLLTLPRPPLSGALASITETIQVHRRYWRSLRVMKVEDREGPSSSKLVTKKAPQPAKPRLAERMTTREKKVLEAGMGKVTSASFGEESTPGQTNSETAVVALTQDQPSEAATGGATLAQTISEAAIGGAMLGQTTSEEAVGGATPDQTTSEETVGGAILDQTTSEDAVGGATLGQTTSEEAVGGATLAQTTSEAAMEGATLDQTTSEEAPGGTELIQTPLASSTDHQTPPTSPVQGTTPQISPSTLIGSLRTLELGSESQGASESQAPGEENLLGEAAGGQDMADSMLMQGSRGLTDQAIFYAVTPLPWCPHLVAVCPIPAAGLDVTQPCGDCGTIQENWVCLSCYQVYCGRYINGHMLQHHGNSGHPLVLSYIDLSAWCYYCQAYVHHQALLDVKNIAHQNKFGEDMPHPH
The assay is described as follows: Test of HDAC activities, HDAC6 (fluorimetric). The format is biochemical. Details: purchased Calbiochem 382180. Conditions: samples at 0.1, 1, 10, 100, 1000 nM; 37° C. 60 minutes; fluorescence Ex 390, Em 460; read-out: HDAC inhibitory activities, HDAC6. Put shortly:
(§1)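 HDAC1 tested at 100, 1000 and 10000 nM; recombinant human HDAC6 at 0.1, 1, 10, 100 and 1000 nM. Reaction 60 min at 37° C, then developer for 30 min at 37° C; fluorescence read at Ex 390/Em 460.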

Another assay has as its target HDAC1 (Homo sapiens, UniProt Q13547). Kind of assay: Test of HDAC activities, HDAC1 Fluorimetric Drug Discovery Assay Kit. The format is biochemical. Set-up: purchased Enzolifesciences BML-AK511. Conditions: samples at 100, 1000, 10000 nM; 37° C. 60 minutes; fluorescence Ex 390, Em 460; read-out: HDAC inhibitory activities, HDAC1. Put shortly: as §1

HDAC1, sequence (Q13547 whole entry): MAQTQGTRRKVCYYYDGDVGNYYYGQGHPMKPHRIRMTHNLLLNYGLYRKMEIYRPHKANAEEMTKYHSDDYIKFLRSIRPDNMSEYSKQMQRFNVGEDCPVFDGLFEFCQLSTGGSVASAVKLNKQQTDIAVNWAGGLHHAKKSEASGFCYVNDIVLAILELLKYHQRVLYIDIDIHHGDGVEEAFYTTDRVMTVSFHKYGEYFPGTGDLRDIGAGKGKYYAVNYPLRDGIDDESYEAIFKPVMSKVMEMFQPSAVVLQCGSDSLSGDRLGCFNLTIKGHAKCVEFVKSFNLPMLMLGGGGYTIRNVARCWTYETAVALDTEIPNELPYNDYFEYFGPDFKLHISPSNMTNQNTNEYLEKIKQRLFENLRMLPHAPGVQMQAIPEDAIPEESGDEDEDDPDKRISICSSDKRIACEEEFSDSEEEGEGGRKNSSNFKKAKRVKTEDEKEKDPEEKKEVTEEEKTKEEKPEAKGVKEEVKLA

In the case of `CCN1CCN(C(=O)N(Cc2ccc(C(=O)NO)cc2)c2cccc(C(F)(F)F)c2)CC1` [Compound 461, 4-ethyl-N-(4-(hydroxycarbamoyl)benzyl)-N-(3-(trifluoromethyl)phenyl)piperazine-1-carboxamide], the clinical score was 1.9 in assay [1] (25 mg/kg twice a day) and 1.3 in assay [1] (50 mg/kg twice a day). For the same compound, the “improvement compared with MTX used as the control group” value in assay [1] (25 and 50 mg/kg twice a day) is listed as “higher than that of MTX”. Further, the “arthritis symptoms improved by” value in assay [1] (25 and 50 mg/kg twice a day, versus vehicle group) was 50 to 70%. For the same compound, the results for the IC50 at HDAC 6 and at HDAC1 were 0.001 µM and 2.72 µM, respectively.

Turning to `O=C(NO)c1ccc(CN(C(=O)N2CCOCC2)c2ccc(OC(F)(F)F)cc2)cc1` [Compound 772, N-(4-(hydroxycarbamoyl)benzyl)-N-(4-(trifluoromethoxy)phenyl)morpholine-4-carboxamide], the IC50 was 0.0025 µM at HDAC 6 and 0.349 µM on HDAC1.

`O=C(NO)c1ccc(CN(C(=O)N2CCOCC2)c2cccc(OC(F)(F)F)c2)cc1` [Compound 773, N-(4-(hydroxycarbamoyl)benzyl)-N-(3-(trifluoromethoxy)phenyl)morpholine-4-carboxamide]: the IC50 on HDAC 6 was 0.0028 µM; at HDAC1 it was 0.312 µM.

Turning to `COc1ccc(C(F)(F)F)cc1N(Cc1ccc(C(=O)NO)cc1)C(=O)N1CCOCC1` [Compound 774, N-(4-(hydroxycarbamoyl)benzyl)-N-(2-methoxy-5-(trifluoromethyl)phenyl)morpholine-4-carboxamide], the IC50 stood at 0.119 µM on HDAC 6 and 12.3 µM at HDAC1.

Take `O=C(NO)c1ccc(CN(C(=O)N2CCOCC2)c2cc(C(F)(F)F)ccc2Cl)cc1` [Compound 776, N-(2-chloro-5-(trifluoromethyl)phenyl)-N-(4-(hydroxycarbamoyl)benzyl)morpholine-4-carboxamide]: the IC50 on HDAC 6 worked out at 0.0315 µM; on HDAC1, 1.98 µM.

As to `O=C(NO)c1ccc(CN(C(=O)N2CCOCC2)c2cccc(C(F)(F)F)n2)cc1` [Compound 778, N-(4-(hydroxycarbamoyl)benzyl)-N-(6-(trifluoromethyl)pyridin-2-yl)morpholine-4-carboxamide], the results for the IC50 on HDAC 6 and at HDAC1 were 0.011 µM and 6.43 µM, respectively.

Take `O=C(NO)c1ccc(CN(C(=O)N2CCOCC2)c2cccc(F)c2F)cc1` [Compound 791, N-(2,3-difluorophenyl)-N-(4-(hydroxycarbamoyl)benzyl)morpholine-4-carboxamide]: the IC50 on HDAC 6 worked out at 0.0011 µM; on HDAC1, 0.585 µM.

`CCN1[C@H](C)CN(C(=O)N(Cc2ccc(C(=O)NO)cc2)c2cccc(C(F)(F)F)c2)C[C@@H]1C` [Compound 797, (3S,5R)-4-ethyl-N-(4-(hydroxycarbamoyl)benzyl)-3,5-dimethyl-N-(3-(trifluoromethyl)phenyl)piperazine-1-carboxamide]: the IC50 at HDAC 6 is 0.002 µM; at HDAC1, 1.6 µM.

For `CC1CN(C(=O)N(Cc2ccc(C(=O)NO)cc2)c2cccc(OC(F)(F)F)c2)CC(C)O1` (stereo not drawn) [Compound 800, N-(4-(hydroxycarbamoyl)benzyl)-2,6-dimethyl-N-(3-(trifluoromethoxy)phenyl)morpholine-4-carboxamide], the values for the IC50 at HDAC 6 and on HDAC1 were 0.078 µM and 0.633 µM, respectively.

Take `CC1CN(C(=O)N(Cc2ccc(C(=O)NO)cc2)c2ccccc2OC(F)(F)F)CC(C)O1` (stereo not drawn) [Compound 801, N-(4-(hydroxycarbamoyl)benzyl)-2,6-dimethyl-N-(2-(trifluoromethoxy)phenyl)morpholine-4-carboxamide]: the IC50 at HDAC 6 worked out at 0.0597 µM; on HDAC1 it was 14.9 µM.

As for `C[C@@H]1CN(C(=O)N(Cc2ccc(C(=O)NO)cc2)c2cccc(C(F)(F)F)c2)C[C@H](C)N1Cc1ccccc1` [Compound 802, (3S,5R)-4-benzyl-N-(4-(hydroxycarbamoyl)benzyl)-3,5-dimethyl-N-(3-(trifluoromethyl)phenyl)piperazine-1-carboxamide], the figures for the IC50 on HDAC 6 and on HDAC1 were 0.0094 µM and 1.6 µM, respectively.

`C[C@@H]1CN(C(=O)N(Cc2ccc(C(=O)NO)cc2)c2cccc(C(F)(F)F)c2)C[C@H](C)N1CC(F)(F)C(F)(F)F` [Compound 803, (3S,5R)—N-(4-(hydroxycarbamoyl)benzyl)-3,5-dimethyl-4-(2,2,3,3,3-pentafluoropropyl)-N-(3-(trifluoromethyl)phenyl)piperazine-1-carboxamide]: the IC50 was 0.213 µM at HDAC 6 and 5.32 µM on HDAC1.

For `CCN1CCN(C(=O)N(Cc2ccc(C(=O)NO)cc2)c2cccc(C(F)(F)F)n2)CC1` [Compound 826, 4-ethyl-N-(4-(hydroxycarbamoyl)benzyl)-N-(6-(trifluoromethyl)pyridin-2-yl)piperazine-1-carboxamide], the IC50 at HDAC 6 amounted to 0.0118 µM; at HDAC1 it was 1.85 µM.

On to `CC1CN(C(=O)N(Cc2ccc(C(=O)NO)cc2)c2cccc(C(F)(F)F)n2)CC(C)O1` (stereo not drawn) [Compound 827, N-(4-(hydroxycarbamoyl)benzyl)-2,6-dimethyl-N-(6-(trifluoromethyl)pyridin-2-yl)morpholine-4-carboxamide], for which the IC50 was 0.0247 µM at HDAC 6 and 1.74 µM on HDAC1.

As for `O=C(NO)c1ccc(CN(C(=O)N2CCCCC2)c2cccc(C(F)(F)F)n2)cc1` [Compound 828, N-(4-(hydroxycarbamoyl)benzyl)-N-(6-(trifluoromethyl)pyridin-2-yl)piperidine-1-carboxamide], the IC50 at HDAC 6 amounted to 0.0367 µM; at HDAC1, 4.14 µM.

As to `O=C(NO)c1ccc(CN(C(=O)N2CC[C@H](F)C2)c2cccc(C(F)(F)F)n2)cc1` [Compound 829, (S)-3-fluoro-N-(4-(hydroxycarbamoyl)benzyl)-N-(6-(trifluoromethyl)pyridin-2-yl)pyrrolidine-1-carboxamide], the IC50 at HDAC 6 stood at 0.0082 µM; on HDAC1, 1.6 µM.

The values above are taken from patent publication US9878986B2, “Compounds for selective histone deacetylase inhibitors, and pharmaceutical composition comprising the same” (CHONG KUN DANG PHARMACEUTICAL CORP., priority 2013, dated 2018).
